Drawing on PubChem BioAssay AID434987 (Southern Research Specialized Biocontainment Screening …, 2010), this text covers IC50 and IC90 for 22 molecules.

Calls of active or inactive are those of the source. How the calls were made is not given here. A value given as a limit tells only on which side of the number the result lay.

The IC50 is the concentration needed to halve the response being measured. Broadly, the IC90 is the concentration at which the effect reaches the 90% level. The low end stands for an effect from little substance, the high end for a need for much substance.

This experiment deals with M. tuberculosis H37Rv growth inhibition with meropenem. The experiment can be described thus: dose response, H37Rv, with and without meropenem (AID 434987).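 Further: growth over 7 days at 37 °C before Alamar Blue read on day 9.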
The mark [1] stands for this setting: M. tuberculosis H37Rv growth inhibition, measured here: IC50 without meropenem.
The mark [2] stands for this setting: M. tuberculosis H37Rv growth inhibition, measured here: IC90 without meropenem.
Setting [3] is: measured here: IC90 with meropenem.

As to `COc1ccccc1NC(=O)c1cnc(Nc2ccccc2OC)c2ccccc12`, the IC50 is 37.2 µM. Under setting [1], this molecule returned an IC50 greater than 100 µM. The molecule further had an IC90 under setting [2] greater than 100 µM. Moreover, under setting [3], the IC90 was greater than 100 µM.
For `O=C(Nc1cccc(S(=O)(=O)NCc2ccco2)c1)c1cc(-c2ccc(F)cc2)nc2ccccc12`, the IC50 is 97.4 µM (inactive). Besides, the IC50 under setting [1] was greater than 100 µM. The IC90 under setting [2] was greater than 100 µM. The same molecule had an IC90 under setting [3] greater than 100 µM.
Regarding `O=C(COc1ccccc1)Nc1cccc(-c2nnc(-c3ccccc3)o2)c1`, the IC50 is > 100 µM (inactive). This molecule had an IC50 under setting [1] greater than 100 µM. For the same molecule, the IC90 under setting [2] is greater than 100 µM. Besides, the IC90 under setting [3] was greater than 100 µM.
With `O=C1OC(c2ccco2)=N/C1=C\c1ccc(-c2cccc(C(F)(F)F)c2)o1`, the IC50 was 48.9 µM (inactive). Besides, the IC50 under setting [1] was 75.3 µM. Under setting [2], this molecule displayed an IC90 greater than 100 µM. This molecule showed an IC90 under setting [3] of 53.4 µM.
On to `CN(c1ccc(OCC(=O)OCC(=O)c2c(N)n(C)c(=O)n(C)c2=O)cc1)S(=O)(=O)c1ccc2ccccc2c1`, for which the IC50 is 26.2 µM. The same molecule yielded an IC50 under setting [1] greater than 100 µM. The molecule also showed an IC90 under setting [2] greater than 100 µM. Under setting [3], this molecule came in with an IC90 greater than 100 µM.
Turning to `Cc1c2c(nc3c(C(=O)NC4CCCC4)cnn13)CCCC2`, the IC50 is 73.4 µM (inactive). The IC50 under setting [1] was greater than 100 µM. Under setting [2], this molecule yielded an IC90 greater than 100 µM. The IC90 under setting [3] is greater than 100 µM.
Turning to `O=[N+]([O-])c1cc(C(F)(F)F)ccc1NCCc1c[nH]c2ccc(O)cc12`, the IC50 is 33.9 µM (inactive). Under setting [1], the half-inhibitory concentration (IC50) was determined as 52.8 µM. This molecule gave an IC90 under setting [2] greater than 100 µM. In addition, the 90% effect concentration (IC90) under setting [3] was 72.9 µM.
On to `CCCCCNCc1cccc(Br)c1`, for which the IC50 is 48.5 µM (inactive). The 50% inhibitory concentration (IC50) under setting [1] is greater than 100 µM. The molecule further registered an IC90 under setting [2] greater than 100 µM. In addition, the IC90 under setting [3] is greater than 100 µM.
With `COc1ccc(C(=O)/C=C/c2cccs2)c(OC(=O)c2cccc([N+](=O)[O-])c2)c1`, the IC50 is 29.5 µM (inactive). Also, the IC50 under setting [1] was found to be 54.8 µM. Also, under setting [2], the IC90 turned out to be 85.2 µM. Under setting [3], this molecule registered an IC90 greater than 100 µM.
In the case of `Cc1ccc(C(=O)c2oc3ccccc3c2NC(=O)c2cc(-c3cc(C)ccc3O)n[nH]2)cc1`, the IC50 was > 100 µM (inactive). Under setting [1], this molecule had an IC50 greater than 100 µM. This molecule came in with an IC90 under setting [2] greater than 100 µM. In addition, the IC90 under setting [3] is greater than 100 µM.
Turning to `O=C(CCC(=O)Nc1ccccc1)NNC(=O)c1ccco1`, the IC50 is > 100 µM (inactive). The molecule further displayed a 50% inhibitory concentration (IC50) under setting [1] greater than 100 µM. Besides, the IC90 under setting [2] is greater than 100 µM. This molecule yielded a 90% effect concentration (IC90) under setting [3] greater than 100 µM.
As to `Cc1nc(SCC(=O)Nc2ccc(F)cc2)c(C#N)c(C)c1CC(=O)c1ccc(Br)cc1`, the IC50 was > 100 µM (inactive). Also, the half-maximal inhibitory concentration (IC50) under setting [1] was greater than 100 µM. This molecule showed an IC90 under setting [2] greater than 100 µM. For the same molecule, under setting [3], the IC90 is greater than 100 µM.
As for `C=C(C)C1Cc2c(C)nn(-c3cccc4ccccc34)c2C1` (stereo not drawn), the half-maximal inhibitory concentration (IC50) is 15.4 µM. Further, the IC50 under setting [1] was 39.2 µM. Moreover, the IC90 under setting [2] was 58.5 µM. The same molecule gave an IC90 under setting [3] of 47.4 µM.
Consider `c1ccc(-c2ccc(C3=Nn4c(Cn5nnc6ccccc65)nnc4SC3)cc2)cc1`, for which the IC50 is 53.5 µM (inactive). This molecule also had an IC50 under setting [1] of 84.4 µM. In addition, under setting [2], the IC90 is greater than 100 µM. In addition, under setting [3], the IC90 is greater than 100 µM.
For `O=C(CSc1ncnc2c1cnn2-c1ccccc1)Nc1ccc2c(c1)OCO2`, the IC50 is 27.3 µM (inactive). For the same molecule, the half-maximal inhibitory concentration (IC50) under setting [1] stood at 49.1 µM. The IC90 under setting [2] was greater than 100 µM. Further, under setting [3], the IC90 is greater than 100 µM.
As to `Cc1ccc(Sc2c(C(=O)Nc3ccc(F)cc3F)c(C(F)(F)F)nn2C)cc1`, the IC50 is > 100 µM (inactive). Besides, the IC50 under setting [1] was greater than 100 µM. Also, under setting [2], the IC90 was greater than 100 µM. Under setting [3], this molecule had an IC90 greater than 100 µM.
Turning to `Cc1cc(Br)cc2c(C(=O)NCC3CCCO3)cc(-c3ccccc3)nc12` (stereo not drawn), the IC50 is 95.6 µM (inactive). In addition, under setting [1], the IC50 was greater than 100 µM. In addition, the IC90 under setting [2] is greater than 100 µM. Also, under setting [3], the IC90 was greater than 100 µM.
`COc1cc(NC(=S)NC(=O)c2ccco2)ccc1NC(=O)C(C)C`: the IC50 is 99.6 µM (inactive). The IC50 under setting [1] was greater than 100 µM. Further, under setting [2], the IC90 was greater than 100 µM. Under setting [3], this molecule yielded an IC90 greater than 100 µM.
With `Clc1ccc(/C=N/NC2=Nc3cccc4cccc2c34)cc1`, the IC50 is > 100 µM (inactive). Under setting [1], this molecule had an IC50 greater than 100 µM. Moreover, the concentration for an effect of 90% (IC90) under setting [2] was greater than 100 µM. The IC90 under setting [3] is greater than 100 µM.
In the case of `S=c1nccc(-c2ccc3c(c2)CCO3)[nH]1`, the IC50 is > 100 µM (inactive). Also, under setting [1], the IC50 was greater than 100 µM. Under setting [2], the IC90 is greater than 100 µM. Under setting [3], this molecule came in with an IC90 greater than 100 µM.
Take `O=C(C1=C[C@H](c2ccc(Br)cc2)C[C@H](OCc2ccc(CO)cc2)O1)N1CCN(Cc2ccc3c(c2)OCO3)CC1`: the IC50 is 50.4 µM (inactive). Under setting [1], this molecule showed an IC50 greater than 100 µM. The same molecule showed an IC90 under setting [2] greater than 100 µM. The molecule also gave an IC90 under setting [3] greater than 100 µM.
With `Cc1cc(=O)[nH]c(N/N=C/c2c(O)n(-c3ccccc3)c(=O)c3ccccc23)n1`, the IC50 is 1.87 µM. The molecule also returned an IC50 under setting [1] of 7.61 µM. Also, under setting [2], the IC90 was greater than 100 µM. The IC90 under setting [3] was 13.6 µM.
